From patent publication US20190367516A1 (Bayer Pharma Aktiengesellschaft, priority 2015, published 2019) come the findings set out here.

Read-outs that look alike come from different tables or passages of the source.

The target of this assay is T1, human M2 receptor (Homo sapiens, UniProt P08172).
T1 sequence (P08172 1-466): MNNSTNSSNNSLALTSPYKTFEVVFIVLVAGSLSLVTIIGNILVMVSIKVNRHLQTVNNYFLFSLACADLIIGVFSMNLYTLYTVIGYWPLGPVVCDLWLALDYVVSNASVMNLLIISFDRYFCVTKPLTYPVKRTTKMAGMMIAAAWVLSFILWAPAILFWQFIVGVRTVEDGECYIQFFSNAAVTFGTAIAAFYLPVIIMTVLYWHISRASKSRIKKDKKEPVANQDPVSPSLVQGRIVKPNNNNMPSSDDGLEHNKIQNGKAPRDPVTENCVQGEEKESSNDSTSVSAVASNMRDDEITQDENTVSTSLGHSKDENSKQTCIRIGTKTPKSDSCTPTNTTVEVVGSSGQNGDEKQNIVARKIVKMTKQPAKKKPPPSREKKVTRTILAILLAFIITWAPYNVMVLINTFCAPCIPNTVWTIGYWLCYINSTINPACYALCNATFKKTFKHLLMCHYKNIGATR
To be noted: for EC50: Receptor activity EC50, allosteric potency at EC20 acetylcholine, in some cases mean of two or more determinations.

[1] abbreviates: read-out: Efficiency, boosting of the acetylcholine effect at EC20 acetylcholine concentration, M2-GIRK1/4 reporter cells.

Excerpt: Functional M2-GIRK1/4 Activation Test
The binding of orthosteric agonists (endogenous ligand: acetylcholine) to the M2 receptor leads to receptor activation or a change in conformation of the receptor in the manner of a shift in equilibrium in favour of the active receptor conformation.
The agonist-induced change in conformation of the M2 receptor results in a Gαi protein activation. […] Under physiological conditions, the result is then a selective efflux of potassium from the cell along the electrochemical gradient. […] The extent of hyperpolarization can therefore be regarded as a measure of the activation of the M2 receptor.
The test cell used is a recombinant CHO-DUKX cell line which has been stably transfected with cDNA coding for the human M2 receptor and with cDNA coding for both GIRK1/4 subunits (CHO-DUKX-M2-GIRK). The transmembrane potential, or the relative changes in the transmembrane potential as a function of substance addition or M2 activation, is determined by means of a voltage-sensitive dye (FLIPR Membrane Potential Assay Kit Blue, Molecular Devices # R8034) and the measurement of cell fluorescence using a proprietary fluorescence imaging instrument.
Determination of the Allosteric Potency of the Test Substances (EC50 Value)
The sowing medium consisted of MEM alpha medium (supplemented with 5% FCS, 2% Glutamax, no genticin).
For the particular measurement, the medium was removed and the cells were laden with the voltage-sensitive dye for at least 6 min at room temperature (30 μl of loading buffer per 384-well). This was followed, in a first measurement, by the determination of the fluorescence for the resting transmembrane potential for a period of 5 sec. Thereafter, 10 μl in each case of the test substances diluted in loading buffer were added, followed by a second measurement to determine the transmembrane potential for a period of 50 sec. Finally, the cells were admixed with 10 μl of agonist solution (acetylcholine dissolved in loading buffer). Acetylcholine was used at the concentration corresponding to the EC20, which had been determined in a preliminary test. The M2-mediated GIRK1/4 activation or hyperpolarization was then monitored in a third measurement over a period of 60 sec. The EC50 value (degree of allosteric potency of test compound) and the efficiency (measure of the boosting of the acetylcholine effect at an EC20 acetylcholine concentration) were determined with the aid of a 4-parameter logistic function (Hill function).

Broadly, the EC50 is the concentration needed to bring the measured effect to its halfway point. A higher EC50 goes with weaker potency. The molecule `CC[C@H](NC(=O)c1cn(-c2c(F)cc(F)cc2F)c2nc(N3CC4CC4(O)C3)ccc2c1=O)C(F)(F)F` (mixture of isomers) [Example 416, 7-[1-Hydroxy-3-azabicyclo[3.1.0]hex-3-yl]-4-oxo-N-[(2S)-1,1,1-trifluorobutan-2-yl]-1-(2,4,6-trifluorophenyl)-1,4-dihydro-1,8-naphthyridine-3-carboxamide] had an EC50 (M2-GIRK1/4 reporter cells) of 8 nM. Moreover, the Emax (read-out: Efficiency) was 92%.
Molecule `CC[C@H](NC(=O)c1cn(-c2c(F)cccc2F)c2nc(N3CC4CC4(O)C3)ccc2c1=O)C(F)(F)F` (mixture of isomers) [Example 417, 1-(2,6-Difluorophenyl)-7-[1-hydroxy-3-azabicyclo[3.1.0]hex-3-yl]-4-oxo-N-[(2S)-1,1,1-trifluorobutan-2-yl]-1,4-dihydro-1,8-naphthyridine-3-carboxamide] showed an EC50 (M2-GIRK1/4 reporter cells) of 24 nM. Also, the Emax under setting [1] was found to be 100%.
The like results for `CC[C@@H](NC(=O)c1cn(-c2ccc(F)cc2F)c2nc(N3C(=O)CCC3C)ccc2c1=O)C(F)(F)F` (mixture of isomers) [Example 426, 1-(2,4-Difluorophenyl)-7-[2-methyl-5-oxopyrrolidin-1-yl]-4-oxo-N-[(2R)-1,1,1-trifluorobutan-2-yl]-1,4-dihydro-1,8-naphthyridine-3-carboxamide] were, in that order, 48 nM and 92%.
The like results for `CC1CC(=O)N(c2ccc3c(=O)c(C(=O)N[C@@H](C4CC4)C(F)(F)F)cn(-c4c(F)cc(F)cc4Cl)c3n2)C1` (mixture of isomers) [Example 429, 1-(2-Chloro-4,6-difluorophenyl)-N-[(1 S)-1-cyclopropyl-2,2,2-trifluoroethyl]-7-[4-methyl-2-oxopyrrolidin-1-yl]-4-oxo-1,4-dihydro-1,8-naphthyridine-3-carboxamide] were, in that order, 16 nM and 99%.
Take `CC1CN(c2ccc3c(=O)c(C(=O)N[C@@H](C4CC4)C(F)(F)F)cn(-c4c(F)cc(F)cc4F)c3n2)C(=O)O1` (mixture of isomers) [Example 436, N-[(1 S)-1-Cyclopropyl-2,2,2-trifluoroethyl]-7-[5-methyl-2-oxo-1,3-oxazolidin-3-yl]-4-oxo-1-(2,4,6-trifluorophenyl)-1,4-dihydro-1,8-naphthyridine-3-carboxamide]: the concentration giving a half-maximal response (EC50) (M2-GIRK1/4 reporter cells) was 81 nM. Under setting [1], the Emax stood at 94%.
The like results for `O=C(NC(CC(F)(F)F)C1CC1)c1cn(-c2c(F)cc(F)cc2F)c2nc(N3C[C@@H](O)[C@H](O)C3)ccc2c1=O` (mixture of isomers) [Example 438, N-[1-Cyclopropyl-3,3,3-trifluoropropyl]-7-[(3R,4R)-3,4-dihydroxypyrrolidin-1-yl]-4-oxo-1-(2,4,6-trifluorophenyl)-1,4-dihydro-1,8-naphthyridine-3-carboxamide] were, in that order, 37 nM and 99.5%.
Where the note is “M2-GIRK1/4 reporter cells”, `CC(NC(=O)c1cn(-c2c(F)cc(F)cc2F)c2nc(N3C[C@@H](O)[C@H](O)C3)ccc2c1=O)(C1CC1)C(F)(F)F` (mixture of isomers) [Example 441, N-[2-Cyclopropyl-1,1,1-trifluoropropan-2-yl]-7-[(3R,4R)-3,4-dihydroxypyrrolidin-1-yl]-4-oxo-1-(2,4,6-trifluorophenyl)-1,4-dihydro-1,8-naphthyridine-3-carboxamide] displayed an EC50 of 15 nM. Moreover, the Emax under setting [1] came out at 100%.
The like results for `CCC(COC(F)(F)F)NC(=O)c1cn(-c2c(F)cc(F)cc2F)c2nc(N3C[C@@H](C)NC3=O)ccc2c1=O` (mixture of isomers) [Example 453, 7-[(4R)-4-Methyl-2-oxoimidazolidin-1-yl]-4-oxo-N-[(2S)-1-(trifluoromethoxy)butan-2-yl]-1-(2,4,6-trifluorophenyl)-1,4-dihydro-1,8-naphthyridine-3-carboxamide] were, in that order, 11 nM and 98.5%.
The like results for `CC(NC(=O)c1cn(-c2c(F)cc(F)cc2F)c2nc(N3C[C@@H](C)NC3=O)ccc2c1=O)C(F)(F)C(F)(F)F` (mixture of isomers) [Example 458, 7-[(4R)-4-Methyl-2-oxoimidazolidin-1-yl]-4-oxo-N-[3,3,4,4,4-pentafluorobutan-2-yl]-1-(2,4,6-trifluorophenyl)-1,4-dihydro-1,8-naphthyridine-3-carboxamide] were, in that order, 3 nM and 100%.
The molecule `O=C(N[C@@H](C1CC1)C(F)(F)F)c1cn(-c2c(F)cc(F)cc2F)c2nc(N3CCOC(CO)C3)ccc2c1=O` (mixture of isomers) [Example 463, N-[(1 S)-1-Cyclopropyl-2,2,2-trifluoroethyl]-7-[2-(hydroxymethyl)morpholin-4-yl]-4-oxo-1-(2,4,6-trifluorophenyl)-1,4-dihydro-1,8-naphthyridine-3-carboxamide] registered a half-maximal effective concentration (EC50) (M2-GIRK1/4 reporter cells) of 54 nM. For the same molecule, the Emax under setting [1] amounted to 89%.
The like results for `CC(NC(=O)c1cn(-c2c(F)cc(F)cc2F)c2nc(N3C[C@@H](O)CC3=O)ccc2c1=O)C1CCC1` (mixture of isomers) [Example 471, N-[1-Cyclobutylethyl]-7-[(4S)-4-hydroxy-2-oxopyrrolidin-1-yl]-4-oxo-1-(2,4,6-trifluorophenyl)-1,4-dihydro-1,8-naphthyridine-3-carboxamide] were, in that order, 10 nM and 89%.
The like results for `CC(NC(=O)c1cn(-c2c(F)cc(F)cc2F)c2nc(N3C[C@@H](O)[C@H](O)C3)ccc2c1=O)C1CCC1` (mixture of isomers) [Example 476, N-[1-Cyclobutylethyl]-7-[(3R,4R)-3,4-dihydroxypyrrolidin-1-yl]-4-oxo-1-(2,4,6-trifluorophenyl)-1,4-dihydro-1,8-naphthyridine-3-carboxamide] were, in that order, 18 nM and 98%.
With `CCC(NC(=O)c1cn(-c2c(F)cc(F)cc2F)c2nc(N3C[C@@H](O)[C@H](O)C3)ccc2c1=O)C(C)C` (mixture of isomers) [Example 487, 7-[(3R,4R)-3,4-Dihydroxypyrrolidin-1-yl]-N-[2-methylpentan-3-yl]-4-oxo-1-(2,4,6-trifluorophenyl)-1,4-dihydro-1,8-naphthyridine-3-carboxamide], for the setting “M2-GIRK1/4 reporter cells”, the EC50 was found to be 12 nM. Besides, under setting [1], the Emax was 96.5%.
Consider `O=C(NC(C1CCC1)C(F)(F)F)c1cn(-c2c(F)cc(F)cc2F)c2nc(N3C[C@@H](O)CC3=O)ccc2c1=O` (mixture of isomers) [Example 505, N-[1-Cyclobutyl-2,2,2-trifluoroethyl]-7-[(4S)-4-hydroxy-2-oxopyrrolidin-1-yl]-4-oxo-1-(2,4,6-trifluorophenyl)-1,4-dihydro-1,8-naphthyridine-3-carboxamide], for which, where the note is “M2-GIRK1/4 reporter cells”, the response was half-maximal at 6 nM (EC50). Under setting [1], the Emax was determined as 100%.
The like results for `CC(NC(=O)c1cn(-c2c(F)cc(F)cc2F)c2nc(N3C[C@@H](O)CC3=O)ccc2c1=O)(C1CC1)C(F)(F)F` (mixture of isomers) [Example 508, N-[2-Cyclopropyl-1,1,1-trifluoropropan-2-yl]-7-[(4S)-4-hydroxy-2-oxopyrrolidin-1-yl]-4-oxo-1-(2,4,6-trifluorophenyl)-1,4-dihydro-1,8-naphthyridine-3-carboxamide] were, in that order, 7 nM and 93.5%.
The like results for `O=C(NC(CC(F)(F)F)C1CC1)c1cn(-c2c(F)cc(F)cc2F)c2nc(N3C[C@@H](O)CC3=O)ccc2c1=O` (mixture of isomers) [Example 512, N-[1-Cyclopropyl-3,3,3-trifluoropropyl]-7-[(4S)-4-hydroxy-2-oxopyrrolidin-1-yl]-4-oxo-1-(2,4,6-trifluorophenyl)-1,4-dihydro-1,8-naphthyridine-3-carboxamide] were, in that order, 10 nM and 100%.
